Results reported in patent publication US4056540A, “4-Phenyl-1,3-benzodioxans” (Bristol-Myers Company, priority 1975, dated 1977).
Where a name gives a salt, the structure may show the parent alone. Read-outs that look alike come from different tables or passages of the source.

Key:
in vivo = conditions: mouse, po, 24 hours observation
Description: hours following drug administration.

[1] = system: pentylenetetrazole convulsions; assay: Pentylenetetrazol Infusion (Mouse); assay type: in vivo; conditions: for ED50: 1 h, po, read-out: ED50 Pentylenetetrazole Mouse (infusion); for antagonism of all the excitatory signs induced by pentylenetetrazol: clonic and tonic convulsions and lethality, result in words
Description: (§1) There were at least 3 animals per
^4 Pentylenetetrazol Infusion (Mouse) - The procedure originally
described by Orloff, M. H. et al., Proc. Soc. Exp. Biol. 70:254 (1949) an
adopted by our laboratories was used.

[2] = system: tonic convulsions induced by maximal electroshock; assay: Maximal Electroshock Test, rat; assay type: in vivo; conditions: 1 h, po, read-out: ED50 Maximal Electroshock Rat
Procedure: (§2) ^1 Test compounds including reference agents were administered orally
(§3) either as water solutions or as fine suspensions in Tween by gastric
(§4) intubation 60 min prior to the test. There were at least 3 animals per
(§5) ^2 Maximal Electroshock Test - Animals were subjected to an 80mA shoc
(§6) of 0.5 sec duration by a means of corneal electrodes using the specially
(§7) designed apparatus manufactured by Wahlquist Instrument Co. Prevention of
(§8) tonic extension by hind limbs was used as a criterion for drug effect.

[3] = system: pentylenetetrazole lethality; assay: Pentylenetetrazol Standard Dose, rat; assay type: in vivo; conditions: 1 h, po, pentylenetetrazol 125 mg/kg ip, prevention of lethality (footnote 5)
Description: as §1
(§9) Prevention of lethality was used as criterion for […]

[4] = system: pentylenetetrazole lethality; assay: Pentylenetetrazol Standard Dose, mouse; assay type: in vivo; conditions: for effectiveness against pentylenetetrazole: result in words, species not given; for ED50: 1 h, mouse, po, pentylenetetrazol 125 mg/kg ip, prevention of lethality (footnote 5)
Description: as §1, §9

[5] = system: tonic convulsions induced by maximal electroshock; assay: Maximal Electroshock Test, mouse; assay type: in vivo; conditions: for ED50: 1 h, po, read-out: ED50 Maximal Electroshock Mouse; for blocking of tonic convulsions induced by maximal electroshock: result in words, species not given
Procedure: as §2, §3, §4, §5, §6, §7, §8

audiogenic seizures = assay: Audiogenic Seizures, mouse; assay type: in vivo; conditions: for blocking of tonic convulsions induced by audiogenic seizures: result in words; for ED50: 1 h, po, read-out: ED50 Audiogenic Seizure Mouse
Procedure: as §2, §3, §4
^3 Audiogenic Seizures - Mice, which were genetically bred for the
susceptability to sound induced seizures (O'Grady Farms) were placed into
the sound attenuated box and exposed to a 120 sec sound stimulus of 85 db
and 10,000 c/sec frequincy. Prevention of tonic extension of hind limbs
was used as a criterion for drug effect.

[6] = Effect on aortic blood pressure in the ouabain-arrhythmia anesthetized dog; assay type: in vivo; conditions: iv; for effect on aortic blood pressure: result in words
Procedure: (§10) Anesthetized dogs were used for the production of ouabain-induced ventricular arrhythmias. The arrhythmia consisted of a nodal or ventricular tachycardia. The procedure used to establish the arrhythmia as well as the criteria employed to determine anti-arrhythmic activity generally was that employed by Lucchesi et al. ^1
Anti-arrhythmic activity of the compounds was determined by rapid intravenous injection and compared to lidocaine, disopyramide and aprindine The average prolonged reversion doses are shown below: […]

[7] = system: ouabain-induced ventricular arrhythmias; assay: Reversion of ouabain-induced arrhythmia in anesthetized dogs; assay type: in vivo, dog; conditions: for ED100: Canis lupus familiaris, 0.5 h, read-out: I. V. Reverting Dose
Procedure: The compounds were also tested in dogs for their reversion activity in ouabain-induced arrhythmia.
as §10
1. Lucchesi, B. L. and H. F. Hardman: The influence of dichloroisoproterenol (DCI) and related compounds upon ouabain and acetylstrophanthidin induced cardiac arrhythmias.

[8] = mouse, pentylenetetrazol infusion (footnote 4)
[9] = rat, 60 min prior to test, prevention of tonic extension of hind limbs
[10] = mouse, 60 min prior to test, prevention of tonic extension of hind limbs
[11] = anesthetized dog, rapid intravenous injection, IV ED100, normal sinoatrial rhythm for greater than 30 mins
[12] = mouse, 60 min prior to test, prevention of tonic extension

NC[C@@H]1Oc2ccc(Cl)cc2[C@H](c2ccccc2)O1 (relative stereo) [BL-3069]
LD50 at 24 h (in vivo): 300 mg/kg
ED50 [1, 8]: 12 mg/kg
ED50 [2, 9]: > 20 mg/kg
ED50 [3]: > 40 mg/kg
effectiveness against pentylenetetrazole [4]: practically ineffective
ED50 [5, 10]: 25 mg/kg
blocking of tonic convulsions induced by maximal electroshock [5]: effective blocking agents of tonic convulsions
blocking of tonic convulsions induced by audiogenic seizures (audiogenic seizures): effective blocking agents of tonic convulsions

CNC[C@@H]1Oc2ccc(Cl)cc2[C@@H](c2ccccc2)O1 (relative stereo) [BL-3100]
Decrease in mean aortic pressure [6]: 50 mmHg
ED100 [7, 11]: > 10 mg/kg

CNC(=O)[C@@H]1Oc2ccc(Cl)cc2[C@@H](c2ccccc2)O1 (relative stereo) [BL-3167]
ED100 [7, 11]: > 10 mg/kg

CNC[C@H]1Oc2ccc(Cl)cc2[C@@H](c2ccccc2)O1.Cl (relative stereo) [BL-3168, cis-6-Chloro-2-methylaminomethyl-4-phenyl-1,3-benzodioxan hydrochloride]
Decrease in mean aortic pressure [6]: 20 mmHg
LD50 at 24 h (in vivo): 300 mg/kg
ED50 [1, 8]: 5 mg/kg
ED50 [2, 9]: 15 mg/kg
ED50 [3]: > 40 mg/kg
ED50 [4]: > 50 mg/kg
effectiveness against pentylenetetrazole [4]: practically ineffective
ED50 [5, 10]: 10 mg/kg
blocking of tonic convulsions induced by maximal electroshock [5]: effective blocking agents of tonic convulsions
ED50 (audiogenic seizures; [12]): 2.5 mg/kg
blocking of tonic convulsions induced by audiogenic seizures (audiogenic seizures): effective blocking agents of tonic convulsions
ED100 [7, 11]: > 10 mg/kg

CC(C)NC(=O)[C@@H]1Oc2ccc(Cl)cc2[C@@H](c2ccccc2)O1 (relative stereo) [BL-3374]
ED100 [7, 11]: > 10 mg/kg

CC(C)NC[C@@H]1Oc2ccc(Cl)cc2[C@@H](c2ccccc2)O1 (relative stereo) [BL-3379]
ED100 [7, 11]: > 10 mg/kg

CC(C)NC[C@@H]1Oc2ccccc2[C@@H](c2ccccc2)O1 (relative stereo) [BL-3394]
effect on aortic blood pressure [6]: gressive fall in aortic
ED100 [7, 11]: ~10 mg/kg

CC(C)NC[C@@H]1Oc2ccc(Cl)cc2[C@H](c2ccccc2)O1 (relative stereo) [BL-3396, cis-6-Chloro-4-phenyl-2-(2-propylaminomethyl)-1,3-benzodioxan hydrochloride]
LD50 at 24 h (in vivo): 400 mg/kg
ED50 [1, 8]: 3 mg/kg
ED50 [2, 9]: 10 mg/kg
ED50 [3]: > 40 mg/kg
ED50 [4]: > 50 mg/kg
ED50 [5, 10]: 10 mg/kg
ED50 (audiogenic seizures; [12]): 2.5 mg/kg

CC(C)NC[C@@H]1Oc2ccccc2[C@H](c2ccccc2)O1 (relative stereo) [BL-3418]
ED100 [7, 11]: 3 to 5 mg/kg

CC(C)NC[C@H]1Oc2ccc(Cl)cc2[C@H](c2ccccc2F)O1.Cl (relative stereo) [BL-3681A, trans-6-Chloro-4-(2-fluorophenyl)-2-(2-propylaminomethyl)-1,3-benzodioxan hydrochloride]
LD50 at 24 h (in vivo): 300 mg/kg
ED50 [1, 8]: 12 mg/kg
ED50 [2, 9]: 15 mg/kg
ED50 [3]: > 40 mg/kg
ED50 [4]: > 50 mg/kg
effectiveness against pentylenetetrazole [4]: practically ineffective
ED50 [5, 10]: 12 mg/kg
blocking of tonic convulsions induced by maximal electroshock [5]: effective blocking agents of tonic convulsions
ED50 (audiogenic seizures; [12]): 10 mg/kg
blocking of tonic convulsions induced by audiogenic seizures (audiogenic seizures): effective blocking agents of tonic convulsions

CNC(=O)[C@@H]1Oc2ccc(Cl)cc2[C@H](c2ccccc2)O1 (relative stereo) [BL-4093]
ED100 [7, 11]: > 10 mg/kg

CN(C)CCCNC(=O)[C@H]1Oc2ccc(Cl)cc2[C@H](c2ccccc2)O1.Cl (relative stereo) [BL-4932A, trans-6-Chloro-4-phenyl-N-(3-dimethylaminopropyl)-1,3-benzodioxan-2-carboxamide hydrochloride]
transient fall in aortic blood pressure ([6]; at 10 mg/kg (N=2)): 50 mmHg
Transient reversion at ([7]; anesthetized dog, iv, transient reversion only (N=2)): 10 mg/kg

CN(C)CCCNC(=O)[C@H]1Oc2ccc(Cl)cc2[C@@H](c2ccccc2)O1.Cl (relative stereo) [BL-4971A, cis-6-Chloro-4-phenyl-N-(3-dimethylaminopropyl)1,3-benzodioxan-2-carboxamide hydrochloride]
effect on aortic blood pressure [6]: No appreciable effect
ED100 [7, 11]: 5 mg/kg

CN(C)CCCNC(=O)[C@H]1Oc2ccccc2[C@@H](c2ccccc2)O1.Cl (relative stereo) [BL-4981A, cis-4-Phenyl-N-(3-dimethylaminopropyl)-1,3-benzodioxan-2-carboxamide hydrochloride]
ED100 [7, 11]: > 10 mg/kg

CCN(CC)CCCN(c1ccccc1)C1Cc2ccccc2C1 [Aprindine, reference compound]
ED100 [7, 11]: 2.46 ± 0.83 mg/kg

CN1C(=O)CN=C(c2ccccc2)c2cc(Cl)ccc21 [Diazepam, reference compound]
antagonism of all the excitatory signs induced by pentylenetetrazol [1]: able to antagonize all the excitatory signs
ED50 ([2]; Rattus norvegicus): 10 mg/kg
ED50 ([5]; Mus musculus): 6 mg/kg
ED50 (audiogenic seizures; Mus musculus): 0.5 mg/kg

O=C1NC(=O)C(c2ccccc2)(c2ccccc2)N1 [Diphenylhydantoin Na, reference compound]
ED50 [1, 8]: 20 mg/kg
ED50 [2, 9]: 30 mg/kg
ED50 [3]: 40 mg/kg
ED50 [4]: > 50 mg/kg
ED50 [5, 10]: 10 mg/kg
ED50 (audiogenic seizures; [12]): 10 mg/kg

CC(C)N(CCC(C(N)=O)(c1ccccc1)c1ccccn1)C(C)C (centres unmarked) [Disopyramide, reference compound]
ED100 [7, 11]: 4.5 ± 1.3 mg/kg

CCN(CC)CC(=O)Nc1c(C)cccc1C [Lidocaine, reference compound]
ED100 ([7]; iv): 6.4 ± 1.4 mg/kg

CCC1(c2ccccc2)C(=O)NC(=O)NC1=O [Phenobarbital Na, reference compound]
LD50 at 24 h (in vivo): 265 mg/kg
ED50 ([1]; Mus musculus): 8 mg/kg
antagonism of all the excitatory signs induced by pentylenetetrazol [1]: able to antagonize all the excitatory signs
ED50 ([2]; Rattus norvegicus): 8 mg/kg
ED50 [3]: 20 mg/kg
ED50 [4]: 15 mg/kg
ED50 ([5]; Mus musculus): 10 mg/kg
ED50 (audiogenic seizures; Mus musculus): 2.5 mg/kg

CN1C(=O)OC(C)(C)C1=O [Trimethadione, reference compound]
LD50 at 24 h (in vivo): 2170 mg/kg
ED50 [1, 8]: 200 mg/kg
antagonism of all the excitatory signs induced by pentylenetetrazol [1]: able to antagonize all the excitatory signs
ED50 [2, 9]: 300 mg/kg
ED50 [3]: 100 mg/kg
ED50 [4]: 400 mg/kg
ED50 [5, 10]: > 400 mg/kg
ED50 (audiogenic seizures; [12]): 150 mg/kg
